# According to ChEMBL document CHEMBL1159365, “Sesquiterpenoids from Artemisia gilvescens and an anti-MRSA compound” (J Nat Prod, 2003):
# System: Staphylococcus aureus
# Test: Antimicrobial activity against methicillin-resistant Staphylococcus aureus after 20 hrs
# Assay type: functional
row,SMILES,MIC [µg/mL]
1,CC1=CC(=O)c2c(C)cc3oc(=O)c(C)c-3cc21,1.95

# System: HCT-116
# Test: Cytotoxicity against human HCT116 cells by MTT assay
# Assay type: functional, cell-based
row,SMILES,IC50 [µM]
1,CC1=CC(=O)c2c(C)cc3oc(=O)c(C)c-3cc21,16
2,C=C1C(=O)O[C@H]([C@@H]2C(=O)C=C[C@]2(C)O)[C@H]1CCC(C)=O [SECOTANAPARTHOLIDE B],3.3
3,C=C1C(=O)O[C@H]([C@H]2C(=O)C=C[C@@]2(C)O)[C@H]1CCC(C)=O,6
4,C=C1C(=O)O[C@H]([C@@H]2C(=O)C=C[C@@]2(C)O)[C@H]1CCC(C)=O [SECOTANAPARTHOLIDE A],6
5,C=C1C(=O)O[C@H](C2=C(C)[C@@H](O)CC2=O)[C@H]1CCC(C)=O [ISOSECOTANAPARTHOLIDE],13
6,C=C1C(=O)O[C@H]2[C@H]1CC[C@@](C)(O)[C@]13O[C@H]1[C@H]1O[C@@]1(C)[C@H]23 [ARTECANIN],14
